Converted amounts (≈) assume the structure as drawn. The source made the active and inactive calls. The calls are words filed in the database; no cut-off is given here.
Key:
[1] = system: Mycobacterium tuberculosis; test: Minimum inhibitory concentration against Mycobacterium tuberculosis using microplate alamar blue assay; type: functional
[2] = system: Mycobacterium tuberculosis; test: Minimum inhibitory concentration against Mycobacterium tuberculosis using microplate alamar blue assay; Inactive; type: functional, organism-based
Plasmodium falciparum = test: In vitro activity as 50% reduction in parasite growth against Plasmodium falciparum by [3H]hypoxanthine uptake; type: functional, organism-based
[3] = system: Mycobacterium tuberculosis; test: Minimum inhibitory concentration against (MDR-TB) Mycobacterium tuberculosis using microplate alamar blue assay; type: functional
Breast carcinoma cell = test: Cytotoxic concentration of compound against human breast cancer cells; type: functional, cell-based
[4] = Cytotoxic concentration of compound against human small cell lung cancer (NCI-187); type: functional
[5] = Cytotoxic concentration of compound against human epidermal carcinoma (KB) cell line; type: functional

Compound	MIC [1]	other results
CCN(CC)c1nc(C)cc(N(C)c2ccccc2)n1	50 µg/mL (≈ 185 µM)	
Cc1cc(Nc2ccccc2)nc(Cl)n1	50 µg/mL (≈ 228 µM)	
CCCN(CC1CC1)c1nc(C)cc(N(C)c2c(C)cc(C)cc2C)n1	3.12 µg/mL (≈ 8.85 µM)	
CCCN(CC1CC1)c1nc(C)cc(Nc2ccccc2)n1	12.5 µg/mL (≈ 42.2 µM)	
CCCN(CC1CC1)c1nc(C)cc(N(C)c2ccccc2)n1	12.5 µg/mL (≈ 40.3 µM)	
CCN(CC)c1nc(C)cc(Nc2ccccc2)n1	25 µg/mL (≈ 97.5 µM)	
Cc1cc(C)c(Nc2cc(C)nc(Cl)n2)c(C)c1		MIC [2]: inactive
C[C@@H]1CC[C@H]2[C@@H](C)C(=O)O[C@@H]3O[C@@]4(C)CC[C@@H]1[C@]32OO4 [ARTEMISININ]		IC50 (Plasmodium falciparum): 0.001 µg/mL (≈ 0.00354 µM)
CC(C)/N=c1\cc2n(-c3ccc(Cl)cc3)c3ccccc3nc-2cc1Nc1ccc(Cl)cc1 [CLOFAZIMINE]		MIC [3]: 2 µg/mL (≈ 4.22 µM)
Cc1c2ccncc2c(C)c2c1[nH]c1ccccc12 [ELLIPTECINE]		IC50 (Breast carcinoma cell): 0.1 µg/mL (≈ 0.406 µM); IC50 [4]: 0.1 µg/mL (≈ 0.406 µM); IC50 [5]: 0.1 µg/mL (≈ 0.406 µM)
NNC(=O)c1ccncc1 [ISONIAZID]	0.04 µg/mL (≈ 0.292 µM)	
NC[C@H]1O[C@H](O[C@H]2[C@H](O)[C@@H](O[C@H]3O[C@H](CO)[C@@H](O)[C@H](N)[C@H]3O)[C@H](N)C[C@@H]2N)[C@H](O)[C@@H](O)[C@@H]1O.O=S(=O)(O)O [KANAMYCIN SULFATE]	5 µg/mL	
NC(=O)c1cnccn1 [PYRAZINAMIDE]	20 µg/mL (≈ 162 µM)	
